Assay results as given in patent US20130338152A1, “FLUOROPHENYL BICYCLIC HETEROARYL COMPOUNDS” (IRM LLC, priority 2011, published 2013).

Assays:
PDGFRa = PDGFRa (Homo sapiens, UniProt P16234); assay: Enzymatic kinase assay; type: biochemical
Protocol: (§1) Two methods were used to analyze phosphorylated peptides and proteins produced by the listed tyrosine and serine/threonine-specific protein kinases: either using a filter-binding assay (FB), or using a flashplate assay (FP). The activities of protein kinases were assayed in the presence or absence of inhibitors, by measuring the incorporation of ^33P from [γ^33P]ATP into appropriate substrates.
(§2) 96-well polypropylene microplates were used to assay the activity in the FB mode. To determine the inhibitory activity of compounds 10 μL of compound dilutions were pipetted into 96-well plates followed by the addition of 10 μL of assay mix and 10 μL of individual enzymes. With the addition of the enzymes the reactions were initiated and continued at RT. […] The final concentration of DMSO in the enzyme assays was 1%.
(§3) Flashplates are available as 96-well standard (STFPs) or as streptavidin-(SAFPs) or nickel coated FPs (NiFPs) from Perkin Elmer. STFPs are 96-well polystyrene microplates in which the interior of each well is permanently coated with a thin layer of polystyrene-based scintillant. Streptavidin flashplates (SAFP) are 96 or 384-well STFPs coated with streptavidin. SAFPs are suitable for a wide variety of assay applications which utilize biotinylated capture molecules. NiFP or nickel chelate flashplates are 96- or 384-well STFPs coated with nickel chelate. NiFPs are designed for in-plate, radiometric assays which utilize 4- or 6-histidine tagged proteins and peptides.
(§4) All kinase assays were performed in STFPs for 60 mins at RT and stopped with 50 μL of 0.5% H3PO4 except PKA which were carried out in polypropylene 96- and 384-well plates, respectively. […] All wells were then washed three times with 200 μL of 0.5% H3PO4 and the plates were dried at room temperature. The plates were sealed and counted in a microplate scintillation counter (TopCount NXT, TopCount NXT HTS). The final concentration of DMSO in the enzyme assays was 1%.

TYK2 = TYK2 (Homo sapiens, UniProt P29597); assay: Enzymatic kinase assay; type: biochemical
Protocol: as §1, §2, §3, §4

LCK = LCK (Homo sapiens, UniProt P06239); assay: Enzymatic kinase assay; type: biochemical
Protocol: as §1, §2, §3, §4

GSK3beta = GSK3beta (Homo sapiens, UniProt P49841); assay: Enzymatic kinase assay; type: biochemical
Protocol: as §1, §2, §3, §4

P38a = P38a (Homo sapiens, UniProt Q16539); assay: Enzymatic kinase assay; type: biochemical
Protocol: as §1, §2, §3, §4

COT1 = COT1 (Homo sapiens, UniProt P41279); assay: Enzymatic kinase assay; type: biochemical
Protocol: as §1, §2, §3, §4

KDR = KDR (Homo sapiens, UniProt P35968); assay: Enzymatic kinase assay; type: biochemical
Protocol: as §1, §2, §3, §4

MK2 = MK2 (Homo sapiens, UniProt P49137); assay: Enzymatic kinase assay; type: biochemical
Protocol: as §1, §2, §3, §4

CDK2A = CDK2A (Homo sapiens, UniProt P24941); assay: Enzymatic kinase assay; type: biochemical
Protocol: as §1, §2, §3, §4

JAK2 = JAK2 (Homo sapiens, UniProt O60674); assay: Enzymatic kinase assay; type: biochemical
Protocol: as §1, §2, §3, §4

cABLT315 = cABLT315 (Homo sapiens, UniProt P00519, T315I); assay: Enzymatic kinase assay; type: biochemical
Protocol: as §1, §2, §3, §4

FGFR-4 = FGFR-4 (Homo sapiens, UniProt P22455); assay: Enzymatic kinase assay; type: biochemical
Protocol: as §1, §2, §3, §4

ERK2 = ERK2 (Homo sapiens, UniProt P28482); assay: Enzymatic kinase assay; type: biochemical
Protocol: as §1, §2, §3, §4

cMET = cMET (Homo sapiens, UniProt P08581); assay: Enzymatic kinase assay; type: biochemical
Protocol: as §1, §2, §3, §4

cKIT = cKIT (Homo sapiens, UniProt P10721); assay: Enzymatic kinase assay; type: biochemical
Protocol: as §1, §2, §3, §4

HER2 = HER2 (Homo sapiens, UniProt P04626); assay: Enzymatic kinase assay; type: biochemical
Protocol: as §1, §2, §3, §4

Aurora A = target: T1, Aurora A (Homo sapiens, UniProt O14965); assay: Enzymatic kinase assay; type: biochemical
T1 sequence (O14965 1-403): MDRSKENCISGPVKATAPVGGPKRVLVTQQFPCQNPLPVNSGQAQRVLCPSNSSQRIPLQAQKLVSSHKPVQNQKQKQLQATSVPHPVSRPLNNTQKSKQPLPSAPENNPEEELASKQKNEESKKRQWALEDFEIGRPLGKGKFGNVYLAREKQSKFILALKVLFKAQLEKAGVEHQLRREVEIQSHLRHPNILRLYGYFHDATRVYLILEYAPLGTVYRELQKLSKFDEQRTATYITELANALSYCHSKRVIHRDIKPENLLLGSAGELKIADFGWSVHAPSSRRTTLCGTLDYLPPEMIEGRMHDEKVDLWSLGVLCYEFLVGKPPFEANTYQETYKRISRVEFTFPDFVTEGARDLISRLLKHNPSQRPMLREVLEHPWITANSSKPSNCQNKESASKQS
Protocol: as §1, §2, §3, §4

EphA4 = EphA4 (Homo sapiens, UniProt P54764); assay: Enzymatic kinase assay; type: biochemical
Protocol: as §1, §2, §3, §4

RET = RET (Homo sapiens, UniProt P07949); assay: Enzymatic kinase assay; type: biochemical; conditions: enzymatic; read-out: RET IC50 values (converted)
Protocol: as §1, §2, §3, §4

IGF1R [1] = target: T2, IGF1R (Homo sapiens, UniProt P08069); assay: Enzymatic kinase assay (filter-binding/flashplate); type: biochemical
Protocol: as §1, §2, §3, §4

InsR = InsR (Homo sapiens, UniProt P06213); assay: Enzymatic kinase assay (filter-binding/flashplate); type: biochemical; conditions: enzymatic; read-out: InsR IC50 values
Protocol: as §1, §2, §3, §4

IGF1R [2] = target: T2, IGF1R; assay: Cellular IGF-1R assay: inhibition of IGF1R phosphorylation in Hek293 cells, capture ELISA (MSD); type: cell-based; design: expressed in transfected cells; host or cells: Hek293 (Hek293-IGF1R); conditions: IGF-triggered receptor phosphorylation
Protocol: IVa. Cellular IGF-1R and InsR Assays
Compound-mediated inhibition of IGF1R and INSR phosphorylation in Hek293 cells transduced with the corresponding receptors is assessed in a capture ELISA format using the MSD (Meso Scale Discovery) platform. Briefly, 30′000 cells washed and diluted in starvation medium (DMEM high glucose supplemented with 0.1% BSA) are seeded in 90 μL per well into 96-well plates pre-coated with poly-D-lysine (0.1 mg/mL in PBS/O). After 24 h incubation at 37° C. and 5% CO2, dose-response effects are determined with 3-fold serial compound dilutions, starting at 10 μM. The final vehicle concentration is 0.1% DMSO in all wells. Following pre-incubation with compounds for 1 h, receptor phosphorylation is triggered by a 10 min exposure to 1.0 ng/μL IGF for Hek293-IGF1R cells, and 5.0 ng/μL insulin for Hek293-InsR cells. Cell lysis is achieved by addition of 80 μL MSD lysis buffer per aspirated well, incubation on ice for 20 min, and a freeze-thaw cycle. Target phosphorylation is then assessed by transferring volumes corresponding to approx. 6 μg Hek293-IGF1R or 0.6 μg Hek293-InsR lysates to MSD assay plates pre-coated with total-IGF1R or total-InsR Abs, respectively. […] Immune complexes are detected by a SULFO-Tag™-coupled anti-rabbit IgG antibody in the presence of 150 μL MSD read-buffer. Light emission at 620 nm triggered by application of electric current is recorded on a MSD Sectorlmager 6000. Acquired raw data (mean Ru-ECL units) are processed in an Excel analysis template. The plate blank (MSD lysis buffer) is subtracted from all data points. The effect of a particular test compound concentration on receptor phosphorylation is expressed relative to the window defined by ligand-stimulated vs unstimulated control cells (set as 100%). IC50 values [nM] are determined using 4-parametric curve-fitting (XLfit software, V4.3.2).

hERG channels = hERG channels (Homo sapiens, UniProt Q12809); assay: biochemical

Chain of RET (P07949 29-1114, species assumed): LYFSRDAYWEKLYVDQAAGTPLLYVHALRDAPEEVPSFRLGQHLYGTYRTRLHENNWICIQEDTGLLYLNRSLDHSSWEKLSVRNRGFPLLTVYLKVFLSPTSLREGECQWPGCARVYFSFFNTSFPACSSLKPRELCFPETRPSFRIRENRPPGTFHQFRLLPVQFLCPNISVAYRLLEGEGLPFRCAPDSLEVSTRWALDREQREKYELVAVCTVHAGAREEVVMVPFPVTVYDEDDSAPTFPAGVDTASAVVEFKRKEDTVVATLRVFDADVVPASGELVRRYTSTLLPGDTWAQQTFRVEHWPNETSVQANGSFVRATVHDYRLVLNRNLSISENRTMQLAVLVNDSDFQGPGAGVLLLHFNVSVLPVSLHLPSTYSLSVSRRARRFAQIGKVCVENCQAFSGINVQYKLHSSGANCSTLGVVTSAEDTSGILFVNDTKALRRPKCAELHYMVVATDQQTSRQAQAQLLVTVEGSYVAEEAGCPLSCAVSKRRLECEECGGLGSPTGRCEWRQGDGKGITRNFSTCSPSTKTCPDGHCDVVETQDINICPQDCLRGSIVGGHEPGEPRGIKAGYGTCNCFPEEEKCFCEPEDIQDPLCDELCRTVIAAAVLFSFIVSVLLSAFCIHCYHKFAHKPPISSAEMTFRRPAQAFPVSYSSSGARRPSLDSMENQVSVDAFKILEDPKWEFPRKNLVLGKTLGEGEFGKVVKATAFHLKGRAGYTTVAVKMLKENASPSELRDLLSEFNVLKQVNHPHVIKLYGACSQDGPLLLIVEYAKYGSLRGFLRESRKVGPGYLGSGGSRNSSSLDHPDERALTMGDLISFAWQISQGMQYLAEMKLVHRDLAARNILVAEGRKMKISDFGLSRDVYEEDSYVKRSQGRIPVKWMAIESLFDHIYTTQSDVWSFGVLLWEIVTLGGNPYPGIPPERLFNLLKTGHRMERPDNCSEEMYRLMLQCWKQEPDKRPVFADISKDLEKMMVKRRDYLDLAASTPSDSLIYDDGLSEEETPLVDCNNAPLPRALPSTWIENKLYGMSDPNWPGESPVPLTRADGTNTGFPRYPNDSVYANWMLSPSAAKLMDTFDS
Chain of ERK2 (P28482 whole entry, species assumed): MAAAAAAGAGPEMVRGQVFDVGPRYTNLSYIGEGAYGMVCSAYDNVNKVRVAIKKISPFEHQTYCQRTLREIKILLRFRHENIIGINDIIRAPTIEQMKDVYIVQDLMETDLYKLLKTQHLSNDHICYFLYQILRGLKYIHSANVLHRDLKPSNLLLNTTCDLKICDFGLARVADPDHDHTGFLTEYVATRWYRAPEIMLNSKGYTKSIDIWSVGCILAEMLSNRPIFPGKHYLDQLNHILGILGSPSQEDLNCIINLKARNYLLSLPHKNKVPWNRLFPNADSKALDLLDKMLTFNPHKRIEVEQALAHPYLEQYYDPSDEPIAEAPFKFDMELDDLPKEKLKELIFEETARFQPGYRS
Chain of EphA4 (P54764 20-986, species assumed): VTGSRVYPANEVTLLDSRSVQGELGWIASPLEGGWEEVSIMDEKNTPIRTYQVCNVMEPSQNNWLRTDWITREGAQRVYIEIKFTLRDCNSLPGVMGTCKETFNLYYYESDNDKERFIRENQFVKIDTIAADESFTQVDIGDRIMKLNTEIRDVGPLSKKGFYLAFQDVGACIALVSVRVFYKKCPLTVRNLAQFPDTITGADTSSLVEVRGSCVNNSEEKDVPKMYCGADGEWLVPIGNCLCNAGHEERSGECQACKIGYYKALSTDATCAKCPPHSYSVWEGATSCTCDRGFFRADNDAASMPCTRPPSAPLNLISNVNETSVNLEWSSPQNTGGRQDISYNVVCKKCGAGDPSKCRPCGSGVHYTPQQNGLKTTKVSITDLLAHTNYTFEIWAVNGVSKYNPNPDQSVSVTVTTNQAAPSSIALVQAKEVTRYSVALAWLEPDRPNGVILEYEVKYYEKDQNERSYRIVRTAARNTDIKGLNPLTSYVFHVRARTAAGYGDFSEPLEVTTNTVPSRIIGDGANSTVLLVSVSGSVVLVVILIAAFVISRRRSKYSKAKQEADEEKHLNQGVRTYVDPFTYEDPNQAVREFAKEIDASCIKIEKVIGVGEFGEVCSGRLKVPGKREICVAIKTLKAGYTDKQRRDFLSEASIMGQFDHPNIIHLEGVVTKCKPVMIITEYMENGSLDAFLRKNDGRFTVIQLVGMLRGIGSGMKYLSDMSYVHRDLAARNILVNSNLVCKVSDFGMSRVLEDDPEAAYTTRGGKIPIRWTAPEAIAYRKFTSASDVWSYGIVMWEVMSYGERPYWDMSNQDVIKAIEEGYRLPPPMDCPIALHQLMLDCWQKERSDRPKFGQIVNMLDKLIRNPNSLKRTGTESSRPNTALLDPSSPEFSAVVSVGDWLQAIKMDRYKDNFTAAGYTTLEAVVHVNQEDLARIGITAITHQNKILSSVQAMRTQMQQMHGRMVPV
Chain of cMET (P08581 25-1390): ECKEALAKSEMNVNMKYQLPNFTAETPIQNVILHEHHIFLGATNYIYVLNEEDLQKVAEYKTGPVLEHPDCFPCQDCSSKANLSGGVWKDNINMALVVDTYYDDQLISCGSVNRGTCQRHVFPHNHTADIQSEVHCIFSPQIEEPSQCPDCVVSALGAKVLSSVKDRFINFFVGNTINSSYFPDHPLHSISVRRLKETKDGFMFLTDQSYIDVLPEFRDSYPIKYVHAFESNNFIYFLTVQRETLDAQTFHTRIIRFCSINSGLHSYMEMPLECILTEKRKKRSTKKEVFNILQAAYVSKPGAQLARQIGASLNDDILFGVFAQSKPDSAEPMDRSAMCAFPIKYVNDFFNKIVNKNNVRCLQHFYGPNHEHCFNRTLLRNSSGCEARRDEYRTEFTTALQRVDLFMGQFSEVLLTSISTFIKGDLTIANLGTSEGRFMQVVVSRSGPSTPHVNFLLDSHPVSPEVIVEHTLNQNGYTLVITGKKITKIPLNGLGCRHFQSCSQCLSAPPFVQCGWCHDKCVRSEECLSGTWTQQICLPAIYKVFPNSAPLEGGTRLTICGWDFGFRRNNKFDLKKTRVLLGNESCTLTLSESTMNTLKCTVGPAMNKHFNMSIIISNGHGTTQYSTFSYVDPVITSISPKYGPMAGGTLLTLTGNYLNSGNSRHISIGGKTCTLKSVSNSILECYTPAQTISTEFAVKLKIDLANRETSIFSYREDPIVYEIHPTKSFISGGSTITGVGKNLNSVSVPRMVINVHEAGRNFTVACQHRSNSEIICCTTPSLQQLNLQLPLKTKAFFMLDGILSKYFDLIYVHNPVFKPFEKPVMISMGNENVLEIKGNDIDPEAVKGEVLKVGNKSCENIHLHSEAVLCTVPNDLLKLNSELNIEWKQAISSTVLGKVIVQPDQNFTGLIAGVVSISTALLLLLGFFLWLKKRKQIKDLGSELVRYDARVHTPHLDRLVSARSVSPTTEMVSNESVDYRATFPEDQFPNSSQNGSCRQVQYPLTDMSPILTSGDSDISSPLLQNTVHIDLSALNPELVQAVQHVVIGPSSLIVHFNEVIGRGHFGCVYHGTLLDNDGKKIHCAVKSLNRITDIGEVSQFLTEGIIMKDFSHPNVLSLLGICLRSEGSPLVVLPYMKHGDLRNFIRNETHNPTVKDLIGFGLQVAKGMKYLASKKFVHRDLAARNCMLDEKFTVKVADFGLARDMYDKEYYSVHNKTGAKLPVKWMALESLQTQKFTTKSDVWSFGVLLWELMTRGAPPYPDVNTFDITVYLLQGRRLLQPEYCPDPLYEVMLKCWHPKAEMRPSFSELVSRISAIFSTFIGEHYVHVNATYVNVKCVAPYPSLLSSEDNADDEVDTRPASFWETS
Chain of JAK2 (O60674 whole entry, species assumed): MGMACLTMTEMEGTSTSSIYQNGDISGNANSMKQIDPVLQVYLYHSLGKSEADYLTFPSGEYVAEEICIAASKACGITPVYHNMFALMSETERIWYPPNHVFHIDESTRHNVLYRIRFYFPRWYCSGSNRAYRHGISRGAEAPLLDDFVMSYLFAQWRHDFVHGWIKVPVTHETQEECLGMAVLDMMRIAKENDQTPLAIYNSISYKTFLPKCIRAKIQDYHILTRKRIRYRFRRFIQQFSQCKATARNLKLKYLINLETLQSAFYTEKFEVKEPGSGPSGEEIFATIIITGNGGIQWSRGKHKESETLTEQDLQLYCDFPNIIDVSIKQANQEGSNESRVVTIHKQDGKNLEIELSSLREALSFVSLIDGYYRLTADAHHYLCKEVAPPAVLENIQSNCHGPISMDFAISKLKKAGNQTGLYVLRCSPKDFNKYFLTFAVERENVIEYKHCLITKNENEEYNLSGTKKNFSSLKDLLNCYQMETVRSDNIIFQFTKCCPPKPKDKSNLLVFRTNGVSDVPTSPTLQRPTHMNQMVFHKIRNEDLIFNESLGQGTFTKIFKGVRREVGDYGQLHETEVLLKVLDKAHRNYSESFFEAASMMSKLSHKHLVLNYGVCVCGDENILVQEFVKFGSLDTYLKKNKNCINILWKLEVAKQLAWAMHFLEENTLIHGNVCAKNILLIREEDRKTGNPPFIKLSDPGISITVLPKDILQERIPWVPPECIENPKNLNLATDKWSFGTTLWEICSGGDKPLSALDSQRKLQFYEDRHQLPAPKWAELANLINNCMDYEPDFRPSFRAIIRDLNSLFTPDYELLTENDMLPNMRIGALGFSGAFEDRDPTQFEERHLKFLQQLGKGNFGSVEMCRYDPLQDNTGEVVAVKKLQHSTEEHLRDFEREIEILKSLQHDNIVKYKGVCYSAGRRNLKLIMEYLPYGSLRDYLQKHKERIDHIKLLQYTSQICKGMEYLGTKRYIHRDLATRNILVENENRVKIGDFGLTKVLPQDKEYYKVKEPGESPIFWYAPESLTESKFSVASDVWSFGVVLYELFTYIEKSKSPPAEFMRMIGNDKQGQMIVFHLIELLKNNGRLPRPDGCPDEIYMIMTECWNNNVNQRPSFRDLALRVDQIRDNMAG

IC50 (PDGFRa) [µM]	IC50 (TYK2) [µM]	IC50 (LCK) [µM]	IC50 (GSK3beta) [µM]	IC50 (P38a) [µM]	IC50 (COT1) [µM]	IC50 (KDR) [µM]	IC50 (MK2) [µM]	IC50 (CDK2A) [µM]	IC50 (JAK2) [µM]	IC50 (cABLT315) [µM]	IC50 (FGFR-4) [µM]	IC50 (ERK2) [µM]	IC50 (cMET) [µM]	IC50 (cKIT) [µM]	IC50 (HER2) [µM]	IC50 (Aurora A) [µM]	IC50 (EphA4) [µM]	IC50 (RET) [µM]	IC50 (InsR) [µM]	SMILES	other results
> 10	> 10	> 10	> 10	> 10	> 10	> 10	> 10	> 10	> 10	> 10	> 10	> 10	> 10	> 10	> 10	> 10	> 10	> 10	0.075	Nc1ncnc2c1c(-c1cc(OCC34CCC(CC3)O4)ccc1F)cn2[C@H]1C[C@@H](N2CC[S+]([O-])CC2)C1 (relative stereo) [Example 34, 5-[2-Fluoro-5-(7-oxa-bicyclo[2.2.1]hept-1-ylmethoxy)-phenyl]-7-[cis-3-(1-oxo-thiomorpholin-4-yl)-cyclobutyl]-7H-pyrrolo[2,3-d]pyrimidin-4-ylamine]	IC50 (IGF1R [1]): 0.0084 µM
6.3	> 10	> 10	> 10	> 10	> 10	2.4	> 10	> 10	> 10	> 10	> 10	> 10	> 10	> 10	> 10	7	> 10	2	0.038	Nc1ncnc2c1c(-c1cccc(OCC3CCCO3)c1F)cn2[C@H]1C[C@@H](CN2CCS(=O)(=O)CC2)C1 (mixture of isomers) [Example 1, 7-[3-(1,1-Dioxo-1-thiomorpholin-4-ylmethyl)-cyclobutyl]-5-[2-fluoro-3-(tetrahydro-furan-2-ylmethoxy)-phenyl]-7H-pyrrolo[2,3-d]pyrimidin-4-ylamine]	IC50 (IGF1R [2]): 0.005 µM; IC50 (IGF1R [1]): 0.0042 µM
> 10	> 10	9.7	> 10	> 10	> 10	> 10	> 10	> 10	> 10	> 10	> 10	> 10	> 10	> 10	> 10	> 10	> 10	3.1	1.3	CC(=O)N1CCN([C@H]2C[C@H](n3cc(-c4cc(OC[C@@H]5CCCO5)ccc4F)c4c(N)ncnc43)C2)CC1 [Example 36, 1-{4-[trans-3-(4-Amino-5-{2-fluoro-5-[(S)-1-(tetrahydro-furan-2-yl)methoxy]-phenyl}-pyrrolo[2,3-d]pyrimidin-7-yl)-cyclobutyl]-piperazin-1-yl}-ethanone]	IC50 (IGF1R [1]): 0.03 µM; IC50 (hERG channels): > 30 µM
> 10	> 10	6.6	> 10	> 10	> 10	> 10	> 10	> 10	> 10	> 10	> 10	> 10	> 10	> 10	> 10	> 10	> 10	> 10	0.13	[2H]C1([2H])C([2H])([2H])C2(COc3cccc(-c4cn([C@H]5C[C@](O)(CO)C5)c5ncnc(N)c45)c3F)OC1([2H])C([2H])([2H])C2([2H])[2H] [Example 27, d9-(Z)-3-{4-Amino-5-[2-fluoro-3-(7-oxa-bicyclo[2.2.1]hept-1-ylmethoxy)-phenyl]-pyrrolo[2,3-d]pyrimidin-7-yl}-1-hydroxymethyl-cyclobutanol]	IC50 (IGF1R [1]): 0.022 µM; IC50 (hERG channels): > 30 µM
> 10	–	–	–	–	> 10	–	–	–	–	–	> 10	–	–	> 10	–	–	> 10	–	–	C[C@]1(O)C[C@@H](c2nc(-c3ccc4ccc(-c5ccccc5)nc4c3)c3c(N)nccn32)C1 [Linsitinib, reference compound]	IC50 (hERG channels): 2.65 µM
> 10	> 10	6.6	> 10	> 10	> 10	> 10	> 10	> 10	> 10	> 10	> 10	> 10	> 10	> 10	> 10	> 10	> 10	6.4	0.081	[2H]C1([2H])C([2H])([2H])C2(COc3ccc(F)c(-c4cn([C@H]5C[C@@H](N6CCN(C(C)=O)CC6)C5)c5ncnc(N)c45)c3)OC1([2H])C([2H])([2H])C2([2H])[2H] [Example 10, d9-1-[4-(cis-3-{4-Amino-5-[2-fluoro-5-(7-oxa-bicyclo[2.2.1]hept-1-ylmethoxy)-phenyl]-pyrrolo[2,3-d]pyrimidin-7-yl}-cyclobutyl)-piperazin-1-yl]-ethanone]	IC50 (hERG channels): 6.8 µM
